Measurements: patent US20240101576A1, “HETEROCYCLIC INHIBITORS OF EGFR AND/OR HER2, FOR USE IN THE TREATMENT OF CANCER” (Scorpion Therapeutics, Inc., priority 2020, published 2024)

Experiments:
Assay type in all cases: cell-based
EGFR WT (Ba/F3 cells) = target: T1, EGFR WT (Ba/F3 cells) (Homo sapiens, UniProt P00533); assay: Inhibitor activity on EGFR-dependent cell growth (CellTiter-Glo, 72 h), Ba/F3 EGFR WT; conditions: read-out: BaF3 WT IC50
T1 construct: expressed in transfected cells; host or cells: Ba/F3 (murine pro-B cells), retroviral transduction, puromycin selection, maintained with EGF
T1 sequence (P00533 25-1210): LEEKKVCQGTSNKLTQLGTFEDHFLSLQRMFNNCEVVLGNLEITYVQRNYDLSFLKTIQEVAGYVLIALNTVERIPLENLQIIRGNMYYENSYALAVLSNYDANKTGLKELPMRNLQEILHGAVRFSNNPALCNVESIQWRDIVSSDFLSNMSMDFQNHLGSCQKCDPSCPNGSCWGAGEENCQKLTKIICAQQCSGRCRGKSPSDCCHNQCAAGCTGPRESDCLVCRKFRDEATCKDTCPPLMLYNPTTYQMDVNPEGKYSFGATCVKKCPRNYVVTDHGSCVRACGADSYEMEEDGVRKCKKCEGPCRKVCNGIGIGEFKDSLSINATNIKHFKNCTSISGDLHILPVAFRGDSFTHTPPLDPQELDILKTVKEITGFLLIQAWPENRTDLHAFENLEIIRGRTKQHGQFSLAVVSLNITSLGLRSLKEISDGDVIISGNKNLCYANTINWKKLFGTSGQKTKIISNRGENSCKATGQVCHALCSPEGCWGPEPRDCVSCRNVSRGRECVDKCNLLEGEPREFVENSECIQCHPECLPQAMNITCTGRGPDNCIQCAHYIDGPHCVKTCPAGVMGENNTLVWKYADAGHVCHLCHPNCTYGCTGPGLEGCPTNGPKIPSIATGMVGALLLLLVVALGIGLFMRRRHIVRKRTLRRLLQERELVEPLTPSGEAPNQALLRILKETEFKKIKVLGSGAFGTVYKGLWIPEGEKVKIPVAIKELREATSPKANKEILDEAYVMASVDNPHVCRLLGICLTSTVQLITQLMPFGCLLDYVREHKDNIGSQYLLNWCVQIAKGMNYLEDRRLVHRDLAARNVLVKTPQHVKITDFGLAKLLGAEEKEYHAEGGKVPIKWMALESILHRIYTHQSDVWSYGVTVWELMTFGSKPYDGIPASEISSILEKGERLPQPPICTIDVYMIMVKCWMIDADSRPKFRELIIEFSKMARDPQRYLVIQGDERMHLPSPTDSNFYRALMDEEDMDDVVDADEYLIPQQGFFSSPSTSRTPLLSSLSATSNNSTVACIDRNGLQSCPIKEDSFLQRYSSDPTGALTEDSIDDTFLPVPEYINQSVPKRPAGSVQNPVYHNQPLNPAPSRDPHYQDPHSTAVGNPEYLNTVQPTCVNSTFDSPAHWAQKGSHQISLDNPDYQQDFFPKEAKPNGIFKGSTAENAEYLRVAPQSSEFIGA
Description: (§1) Example A. Inhibitor Activity on EGFR-Dependent Cell Growth
(§2) Cell lines are generated by transducing Ba/F3 cells with retroviruses containing vectors with EGFR WT, EGFR L858R, EGFR exon 19del, EGFR L858R/C797S, EGFR exon 20 NPG Ins D770_N771, EGFR exon 20 ASV Ins V769_D770, EGFR exon 20 SVD Ins D770_N771, or EGFR exon 20 FQEA Ins A763_V764 genes and a puromycin selection marker. Transduced cells are selected with puromycin for 7 days and are then be transferred into culture media without Interleukin 3 (IL3). EGFR WT cells are maintained with supplemental EGF. Surviving cells are confirmed to express EGFR by Western blot and maintained as a pool. The IC50 date were included in Table 6 and Table 7.
(§3) 1.1 Cells are harvested from flask into cell culture medium and the cell number counted.
(§4) 1.2 Cells are diluted with culture medium to the desired density and 40 μL of cell suspension is added into each well of 384-well cell culture plate and the seeding density is 800 (FQEA, exon 19del), 600 (WT, NPG, L858R/C797S), or 400 (ASV, SVD, L858R) cells/well.
(§5) 2 Compound Preparation and Treatment
(§6) 2.1 Test compounds are dissolved to 10 mM in a DMSO stock solution. 45 μL of stock solution is transferred to a 384 polypropylene plate (pp-plate). Perform 3-fold, 10-point dilution via transferring 15 μL compound into 30 μL DMSO using a TECAN (EVO200) liquid handler.
(§7) 2.2 Spin plates at room temperature at 1,000 RPM for 1 minute.
(§8) 2.3 Transfer 120 nL of diluted compound from compound source plate into the cell plate.
(§9) 2.4 After compound treatment for 72 hours, perform CTG detection for compound treatment plates as described in “Detection” section.
(§10) 3.1 Plates are removed from incubators and equilibrated at room temperature for 15 minutes.
(§11) 3.2 Thaw the CellTiter Glo reagents and allow to equilibrate to room temperature before the experiment.
(§12) 3.3 Add 40 μL of CellTiter-Glo reagent into each well (at 1:1 to culture medium). Then place the plates at room temperature for 30 min followed by reading on EnVision.
(§13) 4.1 Inhibition activity is calculated following the formula below:
(§14) % Inhibition=100×(LumHC−LumSample)/(LumHC−LumLC) • where HC is obtained from cells treated with 0.1% DMSO only; and LC is obtained from culture medium only.
(§15) 4.2 2. Calculate the IC50 by fitting the Curve using Xlfit (v5.3.1.3), equation 201.
(§16) Y=Bottom+(Top−Bottom)/(1+10^((Log IC50−X)*HillSlope))

[1] = target: T2, EGFR exon 20 ASV Ins V769_D770 (Ba/F3 cells) (Homo sapiens, UniProt P00533, INS769ASV); assay: Inhibitor activity on EGFR-dependent cell growth (CellTiter-Glo, 72 h), Ba/F3 EGFR exon 20 ASV Ins; conditions: read-out: BaF3 ASV IC50
T2 construct: expressed in transfected cells; host or cells: Ba/F3 (murine pro-B cells), retroviral transduction, puromycin selection, IL3-independent pool
T2 sequence (P00533 with tags, fused parts or gaps INS769ASV): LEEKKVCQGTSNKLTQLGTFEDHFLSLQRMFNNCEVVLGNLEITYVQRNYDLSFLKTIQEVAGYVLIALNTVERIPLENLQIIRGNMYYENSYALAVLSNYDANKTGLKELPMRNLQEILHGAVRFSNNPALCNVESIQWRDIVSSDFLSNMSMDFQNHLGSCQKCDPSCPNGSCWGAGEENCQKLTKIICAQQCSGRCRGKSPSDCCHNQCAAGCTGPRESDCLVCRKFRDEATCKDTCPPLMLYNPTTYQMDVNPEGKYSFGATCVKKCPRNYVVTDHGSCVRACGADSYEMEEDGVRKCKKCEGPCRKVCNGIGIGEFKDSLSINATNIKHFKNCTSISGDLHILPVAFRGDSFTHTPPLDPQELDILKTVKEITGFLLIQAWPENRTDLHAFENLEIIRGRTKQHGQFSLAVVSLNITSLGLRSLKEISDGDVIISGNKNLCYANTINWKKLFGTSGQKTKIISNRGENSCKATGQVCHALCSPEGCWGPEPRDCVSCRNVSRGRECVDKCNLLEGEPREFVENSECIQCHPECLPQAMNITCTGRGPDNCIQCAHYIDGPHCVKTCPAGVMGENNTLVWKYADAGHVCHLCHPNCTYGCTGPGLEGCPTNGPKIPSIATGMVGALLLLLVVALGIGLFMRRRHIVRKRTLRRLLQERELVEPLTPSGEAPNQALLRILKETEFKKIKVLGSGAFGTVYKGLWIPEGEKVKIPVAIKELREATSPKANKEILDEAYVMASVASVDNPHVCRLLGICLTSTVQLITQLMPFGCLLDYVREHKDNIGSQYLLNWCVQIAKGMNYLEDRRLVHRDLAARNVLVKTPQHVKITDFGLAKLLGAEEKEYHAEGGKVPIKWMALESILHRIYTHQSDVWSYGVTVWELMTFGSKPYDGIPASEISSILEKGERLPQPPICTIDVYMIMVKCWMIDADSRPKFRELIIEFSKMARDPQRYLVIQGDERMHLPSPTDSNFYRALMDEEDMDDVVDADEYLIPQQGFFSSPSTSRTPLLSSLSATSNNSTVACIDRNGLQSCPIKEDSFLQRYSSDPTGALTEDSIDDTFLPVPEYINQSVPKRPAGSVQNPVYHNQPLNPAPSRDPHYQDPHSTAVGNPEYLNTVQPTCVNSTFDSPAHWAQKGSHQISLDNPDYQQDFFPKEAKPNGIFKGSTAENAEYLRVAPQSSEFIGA
Description: as §1, §2, §3, §4, §5, §6, §7, §8, §9, §10, §11, §12, §13, §14, §15, §16

[2] = target: T3, EGFR exon 20 SVD Ins D770_N771 (Ba/F3 cells) (Homo sapiens, UniProt P00533, INS770SVD); assay: Inhibitor activity on EGFR-dependent cell growth (CellTiter-Glo, 72 h), Ba/F3 EGFR exon 20 SVD Ins; conditions: read-out: BaF3 SVD IC50
T3 construct: expressed in transfected cells; host or cells: Ba/F3 (murine pro-B cells), retroviral transduction, puromycin selection, IL3-independent pool
T3 sequence (P00533 with tags, fused parts or gaps INS770SVD): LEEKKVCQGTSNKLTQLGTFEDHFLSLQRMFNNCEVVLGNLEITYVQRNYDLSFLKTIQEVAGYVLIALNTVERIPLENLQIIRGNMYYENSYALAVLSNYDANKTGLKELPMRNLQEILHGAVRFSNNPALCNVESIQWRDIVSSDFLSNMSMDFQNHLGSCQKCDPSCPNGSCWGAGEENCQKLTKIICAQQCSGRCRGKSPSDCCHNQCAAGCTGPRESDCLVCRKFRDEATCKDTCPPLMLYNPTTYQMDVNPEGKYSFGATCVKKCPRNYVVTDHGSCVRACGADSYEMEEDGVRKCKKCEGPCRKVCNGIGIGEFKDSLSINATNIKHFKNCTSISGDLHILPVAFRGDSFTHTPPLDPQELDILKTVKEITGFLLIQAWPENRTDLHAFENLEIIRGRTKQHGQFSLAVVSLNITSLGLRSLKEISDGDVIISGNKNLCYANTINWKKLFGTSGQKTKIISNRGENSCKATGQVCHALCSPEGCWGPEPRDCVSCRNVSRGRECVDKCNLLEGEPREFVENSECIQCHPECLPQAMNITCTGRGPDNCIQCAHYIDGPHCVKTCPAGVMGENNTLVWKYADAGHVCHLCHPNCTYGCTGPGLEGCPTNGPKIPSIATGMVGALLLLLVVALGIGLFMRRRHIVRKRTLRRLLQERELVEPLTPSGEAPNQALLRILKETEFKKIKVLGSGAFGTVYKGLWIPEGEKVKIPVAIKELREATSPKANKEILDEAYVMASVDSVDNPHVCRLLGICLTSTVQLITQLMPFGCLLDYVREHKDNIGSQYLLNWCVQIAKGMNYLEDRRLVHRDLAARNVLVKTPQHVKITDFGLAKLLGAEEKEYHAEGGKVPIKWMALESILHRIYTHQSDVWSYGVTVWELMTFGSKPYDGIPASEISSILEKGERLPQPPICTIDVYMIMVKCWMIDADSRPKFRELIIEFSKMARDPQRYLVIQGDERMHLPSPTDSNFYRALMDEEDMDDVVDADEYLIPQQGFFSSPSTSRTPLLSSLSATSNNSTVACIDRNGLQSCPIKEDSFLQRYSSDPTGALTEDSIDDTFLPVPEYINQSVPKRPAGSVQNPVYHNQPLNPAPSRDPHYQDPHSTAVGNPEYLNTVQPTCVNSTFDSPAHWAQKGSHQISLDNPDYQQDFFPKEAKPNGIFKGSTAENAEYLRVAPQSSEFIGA
Description: as §1, §2, §3, §4, §5, §6, §7, §8, §9, §10, §11, §12, §13, §14, §15, §16

[3] = target: T4, EGFR exon 20 FQEA Ins A763_V764 (Ba/F3 cells) (Homo sapiens, UniProt P00533, INS763FQEA); assay: Inhibitor activity on EGFR-dependent cell growth (CellTiter-Glo, 72 h), Ba/F3 EGFR exon 20 FQEA Ins; conditions: read-out: BaF3 FQEA IC50
T4 construct: expressed in transfected cells; host or cells: Ba/F3 (murine pro-B cells), retroviral transduction, puromycin selection, IL3-independent pool
T4 sequence (P00533 with tags, fused parts or gaps INS763FQEA): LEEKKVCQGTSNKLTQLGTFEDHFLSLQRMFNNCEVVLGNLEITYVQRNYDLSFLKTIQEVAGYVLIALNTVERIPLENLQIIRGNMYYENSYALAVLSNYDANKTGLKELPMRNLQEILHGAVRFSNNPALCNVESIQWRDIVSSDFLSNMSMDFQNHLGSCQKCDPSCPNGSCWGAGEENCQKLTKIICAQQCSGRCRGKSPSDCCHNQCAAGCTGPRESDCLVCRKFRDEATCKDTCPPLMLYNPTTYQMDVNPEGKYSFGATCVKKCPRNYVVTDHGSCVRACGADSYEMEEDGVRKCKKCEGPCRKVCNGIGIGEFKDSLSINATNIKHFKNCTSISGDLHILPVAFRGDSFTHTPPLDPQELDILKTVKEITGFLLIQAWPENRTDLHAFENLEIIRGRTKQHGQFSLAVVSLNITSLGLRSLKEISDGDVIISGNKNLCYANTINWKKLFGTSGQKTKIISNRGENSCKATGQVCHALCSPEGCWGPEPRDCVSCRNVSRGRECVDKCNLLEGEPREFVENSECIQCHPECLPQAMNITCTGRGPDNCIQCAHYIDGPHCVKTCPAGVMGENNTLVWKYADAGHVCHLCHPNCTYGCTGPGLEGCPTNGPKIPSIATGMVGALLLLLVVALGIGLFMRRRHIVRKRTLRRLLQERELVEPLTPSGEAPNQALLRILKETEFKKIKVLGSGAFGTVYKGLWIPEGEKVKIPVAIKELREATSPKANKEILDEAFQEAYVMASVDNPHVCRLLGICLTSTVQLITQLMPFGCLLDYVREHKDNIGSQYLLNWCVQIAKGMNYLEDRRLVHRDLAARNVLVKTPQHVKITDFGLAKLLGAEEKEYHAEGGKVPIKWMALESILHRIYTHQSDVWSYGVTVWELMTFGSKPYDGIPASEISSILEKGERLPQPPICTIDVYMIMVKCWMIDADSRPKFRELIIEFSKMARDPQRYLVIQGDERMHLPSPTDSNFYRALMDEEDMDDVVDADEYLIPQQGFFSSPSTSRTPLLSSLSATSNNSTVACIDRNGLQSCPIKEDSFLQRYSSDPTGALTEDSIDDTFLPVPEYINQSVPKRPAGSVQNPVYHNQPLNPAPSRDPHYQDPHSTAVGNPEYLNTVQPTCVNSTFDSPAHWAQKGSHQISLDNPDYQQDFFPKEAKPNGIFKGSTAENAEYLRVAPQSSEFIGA
Description: as §1, §2, §3, §4, §5, §6, §7, §8, §9, §10, §11, §12, §13, §14, §15, §16

Row | Structure (SMILES) | IC50 (EGFR WT (Ba/F3 cells)) [nM] | IC50 [1] [nM] | IC50 [2] [nM] | IC50 [3] [nM]
1 | COc1c(Cl)cccc1Nc1c(-c2ccnc3cnc(OCCN4CCOCC4)nc23)[nH]c2c1C(=O)NCC2 [compound 506, 3-[(3-chloro-2-methoxyphenyl)amino]-2-{2-[2-(morpholin-4-yl)ethoxy]pyrido[3,2-d]pyrimidin-8-yl}-1H,5H,6H,7H-pyrrolo[3,2-c]pyridin-4-one] | > 1000 | 100 to 1000 | 100 to 1000 | 100 to 1000
2 | COc1c(Cl)cccc1Nc1c(-c2ccncc2F)[nH]c2c1C(=O)NCC2CC1CCO1 (single isomer, unassigned) [Compound 783] | > 1000 | < 100 | – | 100 to 1000
3 | COc1c(Cl)cccc1Nc1c(-c2ccncc2F)[nH]c2c1C(=O)NCC21CCOC1 (single isomer, unassigned) [Compound 782] | > 1000 | 100 to 1000 | 100 to 1000 | 100 to 1000
4 | COc1ccc2nccc(-c3[nH]c4c(c3Nc3cccc(Cl)c3OC)C(=O)NCC43CCC3)c2n1 [Compound 760, 3′-((3-chloro-2-methoxyphenyl)amino)-2′-(6-methoxy-1,5-naphthyridin-4-yl)-5′,6′-dihydrospiro[cyclobutane-1,7′-pyrrolo[3,2-c]pyridin]-4′(1′H)-one] | < 100 | < 100 | < 100 | < 100
5 | COc1c(Cl)cccc1Nc1c(-c2ccnc(Nc3cnn(C4CCOCC4)c3)n2)[nH]c2c1C(=O)NCC2 [compound 517, 3-[(3-chloro-2-methoxyphenyl)amino]-2-(2-{[1-(oxan-4-yl)pyrazol-4-yl]amino}pyrimidin-4-yl)-1H,5H,6H,7H-pyrrolo[3,2-c]pyridin-4-one] | 100 to 1000 | < 100 | < 100 | 100 to 1000
6 | COc1c(Cl)cccc1Nc1c(-c2ccncc2F)[nH]c2c1C(=O)NC[C@]21CCN(C(C)=O)C1 [compound 491] | > 1000 | > 1000 | > 1000 | > 1000
7 | CC[C@H]1CNC(=O)c2c1[nH]c(-c1ccnc(N)n1)c2Nc1cccc(Cl)c1OC [189b] | 100 to 1000 | < 100 | < 100 | < 100
8 | COc1cnc2c(-c3[nH]c4c(c3Nc3cccc(Cl)c3OC)C(=O)NCC4)ccnc2c1 [compound 814] | < 100 | < 100 | < 100 | < 100
9 | COc1c(Cl)cccc1Nc1c(-c2ccncc2F)[nH]c2c1C(=O)NC[C@@]21CCN(C(C)=O)C1 [compound 492] | > 1000 | > 1000 | > 1000 | > 1000
11 | COc1c(Cl)cccc1Nc1c(-c2ccncc2F)[nH]c2c1C(=O)NCC2CC1CCO1 (single isomer, unassigned) [Compound 786] | 100 to 1000 | < 100 | – | 100 to 1000
12 | COc1c(Cl)cccc1Nc1c(-c2ccncc2F)[nH]c2c1C(=O)NCC2C[C@H]1CO[C@H](CN(C)C)CO1 (single isomer, unassigned) [Compound 565, (7R*)-3-[(3-chloro-2-methoxyphenyl)amino]-7-{[(2S,5R)-5-[(dimethylamino)methyl]-1,4-dioxan-2-yl]methyl}-2-(3-fluoropyridin-4-yl)-1H,5H,6H,7H-pyrrolo[3,2-c]pyridin-4-one] | > 1000 | 100 to 1000 | – | –

Now from value to molecule:

Row | IC50 (EGFR WT (Ba/F3 cells)) [nM] | IC50 [1] [nM] | IC50 [2] [nM] | IC50 [3] [nM] | Structure (SMILES)
13 | > 1000 | 100 to 1000 | 100 to 1000 | 100 to 1000 | COc1ncc2nccc(-c3[nH]c4c(c3Nc3cccc(F)c3CC(F)F)C(=O)NCC4)c2n1 [Compound 795, 3-{[2-(2,2-difluoroethyl)-3-fluorophenyl]amino}-2-{2-methoxypyrido[3,2-d]pyrimidin-8-yl}-1H,5H,6H,7H-pyrrolo[3,2-c]pyridin-4-one]
14 | > 1000 | > 1000 | > 1000 | > 1000 | COc1c(Cl)cccc1Nc1c(-c2ccncc2F)[nH]c2c1C(=O)NC[C@@H]2CC(N)=O [Compound 474]
15 | < 100 | < 100 | < 100 | < 100 | COc1c(Cl)cccc1Nc1c(-c2ccnc3ccc(OC4CC4)nc23)[nH]c2c1C(=O)NC[C@@H]2C [Compound 770, (S)-3-((3-chloro-2-methoxyphenyl)amino)-2-(6-cyclopropoxy-1,5-naphthyridin-4-yl)-7-methyl-1,5,6,7-tetrahydro-4H-pyrrolo[3,2-c]pyridin-4-one]
16 | < 100 | < 100 | < 100 | < 100 | COc1c(Cl)cccc1Nc1c(-c2ccnc3ccc(OC(C)C)nc23)[nH]c2c1C(=O)NCC2 [compound 762, 3-[(3-chloro-2-methoxyphenyl)amino]-2-(6-isopropoxy-1,5-naphthyridin-4-yl)-1H,5H,6H,7H-pyrrolo[3,2-c]pyridin-4-one]
17 | < 100 | < 100 | < 100 | < 100 | COc1c(Cl)cccc1Nc1c(-c2ccnc3ccc(C4CC4)nc23)[nH]c2c1C(=O)NCC2 [compound 752, 3-[(3-chloro-2-methoxyphenyl)amino]-2-(6-cyclopropyl-1,5-naphthyridin-4-yl)-1H,5H,6H,7H-pyrrolo[3,2-c]pyridin-4-one]
18 | > 1000 | 100 to 1000 | 100 to 1000 | 100 to 1000 | COc1c(F)cccc1Nc1c(-c2ccncc2F)[nH]c2c1C(=O)NCC2 [compound 418]
19 | > 1000 | > 1000 | > 1000 | 100 to 1000 | COc1ncc2nccc(-c3[nH]c4c(c3Nc3c(F)cccc3F)C(=O)NCC4)c2n1 [Compound 806, 3-[(2,6-difluorophenyl)amino]-2-[2-methoxypyrido[3,2-d]pyrimidin-8-yl]-1H,5H,6H,7H-pyrrolo[3,2-c]pyridin-4-one]
20 | 100 to 1000 | < 100 | < 100 | < 100 | COc1ncc2nccc(-c3[nH]c4c(c3Nc3cccc(Cl)c3)C(=O)NCC4)c2n1 [Compound 798, 3-[(3-chlorophenyl)amino]-2-[2-methoxypyrido[3,2-d]pyrimidin-8-yl]-1H,5H,6H,7H-pyrrolo[3,2-c]pyridin-4-one]
21 | < 100 | < 100 | < 100 | < 100 | COc1c(F)cccc1Nc1c(-c2ccnc3cnc(OC4CC4)nc23)[nH]c2c1C(=O)NCC2 [compound 413]
22 | 100 to 1000 | < 100 | < 100 | < 100 | COc1c(F)cccc1Nc1c(-c2ccnc3cnc(OC4COC4)nc23)[nH]c2c1C(=O)NCC2 [compound 440]
23 | > 1000 | 100 to 1000 | 100 to 1000 | 100 to 1000 | COc1c(F)cccc1Nc1c(-c2ccnc3[nH]ccc23)[nH]c2c1C(=O)NCC2 [compound 252]
24 | 100 to 1000 | < 100 | – | < 100 | COc1c(Cl)cccc1Nc1c(-c2ccncc2F)[nH]c2c1C(=O)NCC2CC1CCO1 (single isomer, unassigned) [Compound 785]
25 | > 1000 | – | – | 100 to 1000 | COc1c(Cl)cccc1Nc1c(-c2ccncc2F)[nH]c2c1C(=O)NCC2 [compound 410]
26 | > 1000 | – | – | 100 to 1000 | COc1c(Cl)cccc1Nc1c(-c2ccncn2)[nH]c2c1C(=O)NCC2 [compound 675, 3-[(3-chloro-2-methoxyphenyl)amino]-2-(pyrimidin-4-yl)-1H,5H,6H,7H-pyrrolo[3,2-c]pyridin-4-one]
27 | > 1000 | 100 to 1000 | – | 100 to 1000 | COc1c(Cl)cccc1Nc1c(-c2ccncc2F)[nH]c2c1C(=O)NCC2CC1CCO1 (single isomer, unassigned) [Compound 784]
